Reference: patent EP4745135A1 (Gluetacs Therapeutics (Shanghai) Co., Ltd., priority 2023, dated 2025)

Tests used:
[1] = molecular target: T1, human Cereblon WT GST-tagged protein (Homo sapiens, UniProt Q96SW2); experiment: CRBN-binding affinity, HTRF (CEREBLON BINDING kit); settings: for inhibition at 0.5 µM: read-out: Inhibition Rate at 0.5 µM (%); for inhibition at 2 µM: read-out: Inhibition Rate at 2 µM (%)
T1 construct: purchased CISBIO 64BDCRBNPEH

WEE1 = molecular target: T2, WEE1 (Homo sapiens, UniProt P30291+Q96SW2); experiment: Western blot, degradation of substrate protein in hPBMCs; assay type: cell-based
T2 construct: effects of the compounds of the present disclosure on the expression of target proteins in cells; endogenous in cells; host or cells: human PBMCs (Milecell Biotechnologies)
T2 sequence (P30291 whole entry): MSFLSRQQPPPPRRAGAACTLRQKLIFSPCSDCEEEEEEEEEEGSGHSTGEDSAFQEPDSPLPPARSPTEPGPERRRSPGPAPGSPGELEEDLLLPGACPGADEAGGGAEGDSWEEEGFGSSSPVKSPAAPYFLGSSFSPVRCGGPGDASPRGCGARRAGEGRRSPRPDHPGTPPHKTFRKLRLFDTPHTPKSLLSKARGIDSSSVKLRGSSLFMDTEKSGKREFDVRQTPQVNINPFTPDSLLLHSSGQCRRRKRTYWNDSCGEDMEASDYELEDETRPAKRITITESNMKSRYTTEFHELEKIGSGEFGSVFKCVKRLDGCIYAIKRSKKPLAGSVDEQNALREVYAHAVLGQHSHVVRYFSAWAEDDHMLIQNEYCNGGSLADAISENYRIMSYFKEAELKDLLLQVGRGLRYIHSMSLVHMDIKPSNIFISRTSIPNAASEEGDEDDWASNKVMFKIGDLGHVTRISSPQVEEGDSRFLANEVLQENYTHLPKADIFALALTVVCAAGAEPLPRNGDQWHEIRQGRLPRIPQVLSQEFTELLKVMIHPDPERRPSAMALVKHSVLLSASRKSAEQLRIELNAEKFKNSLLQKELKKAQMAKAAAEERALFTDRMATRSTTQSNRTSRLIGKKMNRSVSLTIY
T2 sequence (Q96SW2 whole entry): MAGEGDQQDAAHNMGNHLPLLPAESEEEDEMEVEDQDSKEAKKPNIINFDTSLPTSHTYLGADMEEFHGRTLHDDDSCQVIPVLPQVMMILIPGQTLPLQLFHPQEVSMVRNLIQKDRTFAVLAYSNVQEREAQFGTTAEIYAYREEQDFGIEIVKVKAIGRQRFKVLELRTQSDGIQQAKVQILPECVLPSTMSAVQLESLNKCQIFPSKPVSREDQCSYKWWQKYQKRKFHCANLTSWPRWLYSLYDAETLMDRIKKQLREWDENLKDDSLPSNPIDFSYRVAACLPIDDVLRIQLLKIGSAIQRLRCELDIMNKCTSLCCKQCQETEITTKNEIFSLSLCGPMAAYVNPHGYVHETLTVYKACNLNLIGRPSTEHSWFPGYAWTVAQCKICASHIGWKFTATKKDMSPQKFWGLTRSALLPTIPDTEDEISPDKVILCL
T2 sequence (Q16531 whole entry partner): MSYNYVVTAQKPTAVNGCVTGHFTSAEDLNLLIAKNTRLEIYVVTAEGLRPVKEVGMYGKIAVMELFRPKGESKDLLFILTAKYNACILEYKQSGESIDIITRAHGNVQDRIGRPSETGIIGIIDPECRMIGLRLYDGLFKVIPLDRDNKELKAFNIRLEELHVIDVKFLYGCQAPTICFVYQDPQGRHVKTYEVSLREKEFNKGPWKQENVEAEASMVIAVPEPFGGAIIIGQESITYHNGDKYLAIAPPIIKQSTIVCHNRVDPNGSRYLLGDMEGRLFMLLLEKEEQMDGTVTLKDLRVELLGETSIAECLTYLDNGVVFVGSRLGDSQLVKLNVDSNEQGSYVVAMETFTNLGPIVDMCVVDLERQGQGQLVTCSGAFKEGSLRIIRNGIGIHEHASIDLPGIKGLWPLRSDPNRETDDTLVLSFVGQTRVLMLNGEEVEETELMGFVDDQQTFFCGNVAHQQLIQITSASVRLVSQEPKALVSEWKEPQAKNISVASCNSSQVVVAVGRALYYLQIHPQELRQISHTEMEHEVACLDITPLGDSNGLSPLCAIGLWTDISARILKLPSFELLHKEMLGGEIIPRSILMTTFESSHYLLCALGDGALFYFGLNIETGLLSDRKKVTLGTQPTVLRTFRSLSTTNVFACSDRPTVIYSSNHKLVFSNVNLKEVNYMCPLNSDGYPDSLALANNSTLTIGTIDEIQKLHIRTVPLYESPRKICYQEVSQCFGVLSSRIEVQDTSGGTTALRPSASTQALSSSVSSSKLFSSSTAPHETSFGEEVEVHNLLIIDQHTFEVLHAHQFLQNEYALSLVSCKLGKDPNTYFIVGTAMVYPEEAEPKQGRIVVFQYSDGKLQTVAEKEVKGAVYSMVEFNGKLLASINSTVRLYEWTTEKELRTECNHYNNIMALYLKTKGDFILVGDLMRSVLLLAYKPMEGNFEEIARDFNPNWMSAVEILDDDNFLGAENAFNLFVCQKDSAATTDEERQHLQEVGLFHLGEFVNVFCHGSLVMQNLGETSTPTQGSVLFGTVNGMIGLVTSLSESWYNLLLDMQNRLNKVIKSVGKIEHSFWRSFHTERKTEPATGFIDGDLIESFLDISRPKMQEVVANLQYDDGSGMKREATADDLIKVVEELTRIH

IKZF1 = molecular target: T3, IKZF1 (Homo sapiens, UniProt Q13422+Q96SW2); experiment: as above; assay type: cell-based
T3 construct: effects of the compounds of the present disclosure on the expression of target proteins in cells; endogenous in cells; host or cells: human PBMCs (Milecell Biotechnologies)
T3 sequence (Q13422 whole entry): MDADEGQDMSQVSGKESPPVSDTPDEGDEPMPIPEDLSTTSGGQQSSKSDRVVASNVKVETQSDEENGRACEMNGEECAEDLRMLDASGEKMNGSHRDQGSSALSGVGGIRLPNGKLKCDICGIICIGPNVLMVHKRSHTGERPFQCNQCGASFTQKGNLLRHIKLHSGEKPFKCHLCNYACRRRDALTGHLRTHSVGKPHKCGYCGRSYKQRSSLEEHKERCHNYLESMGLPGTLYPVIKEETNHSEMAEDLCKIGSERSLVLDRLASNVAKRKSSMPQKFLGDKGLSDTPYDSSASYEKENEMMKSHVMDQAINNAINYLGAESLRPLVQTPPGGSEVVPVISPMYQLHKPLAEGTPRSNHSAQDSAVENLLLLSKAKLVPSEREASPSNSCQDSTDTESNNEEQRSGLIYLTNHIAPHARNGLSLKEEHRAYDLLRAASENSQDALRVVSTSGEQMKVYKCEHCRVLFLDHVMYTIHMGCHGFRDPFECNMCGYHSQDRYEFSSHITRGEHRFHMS
T3 sequence (Q96SW2 whole entry): as the sequence (Q96SW2 whole entry) above
T3 sequence (Q16531 whole entry partner): as the sequence (Q16531 whole entry partner) above

IKZF2 = molecular target: T4, IKZF2 (Homo sapiens, UniProt Q96SW2+Q9UKS7); experiment: as above; assay type: cell-based
T4 construct: effects of the compounds of the present disclosure on the expression of target proteins in cells; endogenous in cells; host or cells: human PBMCs (Milecell Biotechnologies)
T4 sequence (Q9UKS7 whole entry): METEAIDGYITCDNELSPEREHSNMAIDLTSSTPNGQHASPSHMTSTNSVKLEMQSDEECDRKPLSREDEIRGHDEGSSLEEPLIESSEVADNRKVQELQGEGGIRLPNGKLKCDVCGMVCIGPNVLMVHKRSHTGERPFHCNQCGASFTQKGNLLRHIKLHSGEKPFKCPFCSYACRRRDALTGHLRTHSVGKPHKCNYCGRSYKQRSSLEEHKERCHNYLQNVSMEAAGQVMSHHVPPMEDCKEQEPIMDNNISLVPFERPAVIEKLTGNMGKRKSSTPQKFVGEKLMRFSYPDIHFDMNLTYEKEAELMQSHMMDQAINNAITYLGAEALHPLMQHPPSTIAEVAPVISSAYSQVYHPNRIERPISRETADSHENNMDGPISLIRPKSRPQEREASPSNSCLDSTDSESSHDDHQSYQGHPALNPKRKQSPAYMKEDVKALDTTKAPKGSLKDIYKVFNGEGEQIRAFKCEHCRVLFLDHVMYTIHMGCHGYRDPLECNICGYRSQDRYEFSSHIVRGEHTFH
T4 sequence (Q96SW2 whole entry): as the sequence (Q96SW2 whole entry) above
T4 sequence (Q16531 whole entry partner): as the sequence (Q16531 whole entry partner) above

CK1α = molecular target: T5, CK1α (Homo sapiens, UniProt P48729+Q96SW2); experiment: as above; assay type: cell-based
T5 construct: effects of the compounds of the present disclosure on the expression of target proteins in cells; endogenous in cells; host or cells: human PBMCs (Milecell Biotechnologies)
T5 sequence (P48729 whole entry): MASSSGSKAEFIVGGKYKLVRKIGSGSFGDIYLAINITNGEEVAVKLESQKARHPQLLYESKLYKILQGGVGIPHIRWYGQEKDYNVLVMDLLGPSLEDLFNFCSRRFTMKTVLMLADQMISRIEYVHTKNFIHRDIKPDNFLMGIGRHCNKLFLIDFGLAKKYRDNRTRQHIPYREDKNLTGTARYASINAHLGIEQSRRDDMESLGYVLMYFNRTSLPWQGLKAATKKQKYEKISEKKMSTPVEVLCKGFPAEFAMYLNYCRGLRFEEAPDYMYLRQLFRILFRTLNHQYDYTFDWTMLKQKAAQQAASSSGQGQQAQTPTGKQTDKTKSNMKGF
T5 sequence (Q96SW2 whole entry): as the sequence (Q96SW2 whole entry) above
T5 sequence (Q16531 whole entry partner): as the sequence (Q16531 whole entry partner) above

IKZF3 = molecular target: T6, IKZF3 (Homo sapiens, UniProt Q96SW2+Q9UKT9); experiment: as above; assay type: cell-based
T6 construct: effects of the compounds of the present disclosure on the expression of target proteins in cells; endogenous in cells; host or cells: human PBMCs (Milecell Biotechnologies)
T6 sequence (Q9UKT9 whole entry): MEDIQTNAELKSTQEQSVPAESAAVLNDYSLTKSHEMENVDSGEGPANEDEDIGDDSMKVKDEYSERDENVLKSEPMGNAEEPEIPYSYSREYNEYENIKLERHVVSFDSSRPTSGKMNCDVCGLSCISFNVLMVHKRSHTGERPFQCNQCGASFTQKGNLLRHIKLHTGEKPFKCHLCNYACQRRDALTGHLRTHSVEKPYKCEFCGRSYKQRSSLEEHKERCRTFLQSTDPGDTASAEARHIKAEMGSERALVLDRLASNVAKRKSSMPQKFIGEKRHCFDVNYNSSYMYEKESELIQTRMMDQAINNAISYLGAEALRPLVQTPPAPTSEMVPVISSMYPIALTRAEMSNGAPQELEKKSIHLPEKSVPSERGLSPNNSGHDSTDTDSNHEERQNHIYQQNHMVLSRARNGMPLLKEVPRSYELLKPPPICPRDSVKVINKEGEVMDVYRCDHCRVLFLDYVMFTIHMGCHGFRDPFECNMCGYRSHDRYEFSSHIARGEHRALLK
T6 sequence (Q96SW2 whole entry): as the sequence (Q96SW2 whole entry) above
T6 sequence (Q16531 whole entry partner): as the sequence (Q16531 whole entry partner) above

GSPT1 = experiment: as above; assay type: cell-based, Human
[2] = tested on: Human breast cancer cell (MCF-7); experiment: Tumor cell proliferation inhibition (CellTiter-Meiluncell luminescent cell viability assay); settings: MCF7, 96 h; for inhibition at 0.01 µM: read-out: Inhibition Rate at 10 nM (%); for inhibition at 0.5 µM: read-out: Inhibition Rate at 500 nM (%)
[3] = tested on: Human multiple myeloma cell (MM.1S); experiment: as above; settings: Homo sapiens, MM1.S, 96 h; for inhibition at 0.01 µM: read-out: Inhibition Rate at 10 nM (%); for inhibition at 0.5 µM: read-out: Inhibition Rate at 500 nM (%)
Procedure: The tumor cells used herein were cultured in a cell culture medium listed in table 2 at 37°C in an incubator with 5% CO2. Prior to experimentation, all cell lines used were correctly identified by STR profiling, and tested negative for mycoplasma contamination using a mycoplasma detection kit through routine screenings.
The IC50 values of the compounds of the present disclosure (including the compounds in Table 1 and Examples) were determined using the CellTiter-Meiluncell Luminescent Cell Viability Assay Kit from Dalian Meilun Biotech Co., Ltd. The detailed procedure is as follows: Tumor cells were seeded in 96-well cell culture plates at the densities specified in Table 3. On the following day, the test compounds of the present disclosure were subjected to serial dilution. The dilution can be performed according to one of the following two methods: • (1) The first dilution method: The test compounds of the present disclosure (including the compounds in Table 1 and Examples) were subjected to 5-fold serial dilutions starting from a highest concentration of 2000 µM, resulting in a total of 9 concentrations from high to low (2000, 400, 80, 16, 3.2, 0.64, 0.128, 0.0256, 0.00512 µM). Subsequently, 0.5 µL of the test compound dilution was transferred into the 96-well plate containing the cells, with each well containing 100 µL of cell culture medium. […] Into the 96-well plate, the diluted test compounds and corresponding detection reagents were added, resulting in final test compound concentrations of 500 nM and 10 nM, respectively. The experimental procedure is described below using the diluted 2 µM test compound as an example.
0.5 µL of the aforementioned diluted compound of the present disclosure (including the compounds in Table 1 and Examples) was added to the seeded cells in 100 µL of medium, yielding a final test compound concentration of 10 nM. After the cells were treated with the compounds of the present disclosure for a specified period, the cell viability assay reagent was added to the culture medium according to the kit's instructions to determine cell viability. […] All controls were treated using the same procedure as the compounds of the present disclosure. The growth inhibition curves for the compounds of the present disclosure were plotted using Prism GraphPad software, and the IC50 values were calculated therefrom.

[4] = tested on: Human myeloid monocytic leukemia cell (MV-4-11); experiment: as above; settings: MV4-11, 96 h
[5] = 24 hours treatment, compounds at 50 nM and 500 nM (concentration behind the class not stated)
[6] = Western blot, 24 hours of compound treatment, compounds tested at 50 nM and 500 nM (concentration for the table not stated)

T1 sequence (Q96SW2 whole entry): as the sequence (Q96SW2 whole entry) above

Structure (SMILES)	inhibition at 0.5 µM [1]	inhibition at 2 µM [1]	Wee1 substrate protein remaining % (WEE1; [5])	IKZF 1 substrate protein remaining % (IKZF1; [5])	IKZF2 substrate protein remaining % (IKZF2; [5])	CK1α substrate protein remaining % (CK1α; [5])	IKZF3 substrate protein remaining % (IKZF3; [5])	GSPT1 substrate protein remaining % (GSPT1; [5])	inhibition at 0.01 µM [2]	inhibition at 0.5 µM [2]	inhibition at 0.01 µM [3]	inhibition at 0.5 µM [3]	inhibition at 0.01 µM ([4]; read-out: Inhibition Rate at 10 nM (%))	inhibition at 0.5 µM ([4]; read-out: Inhibition Rate at 500 nM (%))	Wee1 substrate protein remaining % (WEE1; [6])	IKZF 1 substrate protein remaining % (IKZF1; [6])	IKZF2 substrate protein remaining % (IKZF2; [6])	CK1α substrate protein remaining % (CK1α; [6])	IKZF3 substrate protein remaining % (IKZF3; [6])	GSPT1 substrate protein remaining % (GSPT1; [6])
O=C1CCC(N2Cc3c(CN4CCC(N5C(=O)COc6cc(F)ccc65)CC4)cccc3C2=S)C(=O)N1 (centres unmarked) [GT-08853, 3-(4-((4-(7-fluoro-3-oxo-2,3-dihydro-4H-benzo[b][1,4]oxazin-4-yl)piperidin-1-yl)methyl)-1-thioxoisoindolin-2-yl)piperidine-2,6-dione]	60 to 80%	80 to 100%	B (80%< substrate protein remaining %≤ 100%)	B (80%< substrate protein remaining %≤ 100%)	B (80%< substrate protein remaining %≤ 100%)	B (80%< substrate protein remaining %≤ 100%)	A (0% ≤ substrate protein remaining % ≤ 80%)	B (80%< substrate protein remaining %≤ 100%)	5 to 10%	40 to 50%	30 to 40%	40 to 50%								
O=C1CCC(N2Cc3c(CN4CCN(c5ncnc6scc(-c7ccccc7)c56)CC4)cccc3C2=S)C(=O)N1 (centres unmarked) [GT-08920, 3-(4-((4-(5-phenylthieno[2,3-d]pyrimidin-4-yl)piperazin-1-yl)methyl)-1-thioxoisoindolin-2-yl)piperidine-2,6-dione]	40 to 53%	80 to 100%							50 to 60%	30 to 40%	30 to 40%	40 to 50%								
O=C1CCC(N2Cc3cc(CN4CCC(N5CCCc6cc(F)ccc65)CC4)ccc3C2=S)C(=O)N1 (centres unmarked) [GT-09271, 3-(5-((4-(6-fluoro-3,4-dihydroquinolin-1(2H)-yl)piperidin-1-yl)methyl)-1-thioxoisoindolin-2-yl)piperidine-2,6-dione]	60 to 80%	80 to 100%							20 to 30%	40 to 50%			40 to 60%	40 to 60%						
O=C1CCC(N2Cc3c(CN4CC=C(c5n[nH]c6cc(F)ccc56)CC4)cccc3C2=S)C(=O)N1 (centres unmarked) [GT-08850, 3-(4-((4-(6-fluoro-1H-indazol-3-yl)-3,6-dihydropyridin-1(2H)-yl)methyl)-1-thioxoisoindolin-2-yl)piperidine-2,6-dione]	60 to 80%	80 to 100%							40 to 50%	50 to 60%					B (80%< substrate protein remaining %≤ 100%)	B (80%< substrate protein remaining %≤ 100%)	B (80%< substrate protein remaining %≤ 100%)	B (80%< substrate protein remaining %≤ 100%)	B (80%< substrate protein remaining %≤ 100%)	A (0% ≤ substrate protein remaining % ≤ 80%)
O=C1CCC(N2Cc3c(CN4CC(C5CCOc6cc(F)ccc65)C4)cccc3C2=S)C(=O)N1 (centres unmarked) [GT-08859, 3-(4-((3-(7-fluorochroman-4-yl)azetidin-1-yl)methyl)-1-thioxoisoindolin-2-yl)piperidine-2,6-dione]	53 to 60%	80 to 100%	B (80%< substrate protein remaining %≤ 100%)	B (80%< substrate protein remaining %≤ 100%)	B (80%< substrate protein remaining %≤ 100%)	B (80%< substrate protein remaining %≤ 100%)	B (80%< substrate protein remaining %≤ 100%)	A (0% ≤ substrate protein remaining % ≤ 80%)	50 to 60%	40 to 50%	30 to 40%	50 to 60%								
O=C1CCC(N2Cc3c(CN4CCC(N5CCc6cc(F)ccc65)CC4)cccc3C2=S)C(=O)N1 (centres unmarked) [GT-08845, 3-(4-((4-(5-fluoroindolin-1-yl)piperidin-1-yl)methyl)-1-thioxoisoindolin-2-yl)piperidine-2,6-dione]	40 to 53%	80 to 100%							50 to 60%	60 to 70%	20 to 30%	40 to 50%			A (0% ≤ substrate protein remaining % ≤ 80%)	B (80%< substrate protein remaining %≤ 100%)	B (80%< substrate protein remaining %≤ 100%)	B (80%< substrate protein remaining %≤ 100%)	B (80%< substrate protein remaining %≤ 100%)	A (0% ≤ substrate protein remaining % ≤ 80%)
O=C1CCC(N2Cc3c(CN4CCC(c5ncnc6sc7c(c56)CCC7)CC4)cccc3C2=S)C(=O)N1 (centres unmarked) [GT-08934, 3-(4-((4-(6,7-dihydro-5H-cyclopenta[4,5]thieno[2,3-d]pyrimidin-4-yl)piperidin-1-yl)methyl)-1-thioxoisoindolin-2-yl)piperidine-2,6-dione]	40 to 53%	53 to 60%	A (0% ≤ substrate protein remaining % ≤ 80%)	A (0% ≤ substrate protein remaining % ≤ 80%)	B (80%< substrate protein remaining %≤ 100%)	B (80%< substrate protein remaining %≤ 100%)	A (0% ≤ substrate protein remaining % ≤ 80%)	A (0% ≤ substrate protein remaining % ≤ 80%)	30 to 40%	40 to 50%										
O=C1CCC(N2Cc3c(CN4CCC(n5c(=O)[nH]c6cc(F)ccc65)CC4)cccc3C2=S)C(=O)N1 (centres unmarked) [GT-08843, 3-(4-((4-(5-fluoro-2-oxo-2,3-dihydro-1H-benzo[d]imidazol-1-yl)piperidin-1-yl)methyl)-1-thioxoisoindolin-2-yl)piperidine-2,6-dione]	60 to 80%	80 to 100%							60 to 70%	60 to 70%					A (0% ≤ substrate protein remaining % ≤ 80%)	B (80%< substrate protein remaining %≤ 100%)	B (80%< substrate protein remaining %≤ 100%)	B (80%< substrate protein remaining %≤ 100%)	B (80%< substrate protein remaining %≤ 100%)	B (80%< substrate protein remaining %≤ 100%)
O=C1CCC(N2Cc3c(CN4CC=C(c5ncnc6sccc56)CC4)cccc3C2=S)C(=O)N1 (centres unmarked) [GT-08937, 3-(4-((4-(thieno[2,3-d]pyrimidin-4-yl)-3,6-dihydropyridin-1(2H)-yl)methyl)-1-thioxoisoindolin-2-yl)piperidine-2,6-dione]	60 to 80%	80 to 100%	A (0% ≤ substrate protein remaining % ≤ 80%)	B (80%< substrate protein remaining %≤ 100%)	B (80%< substrate protein remaining %≤ 100%)	B (80%< substrate protein remaining %≤ 100%)	B (80%< substrate protein remaining %≤ 100%)	A (0% ≤ substrate protein remaining % ≤ 80%)	30 to 40%	40 to 50%										
O=C1CCC(N2Cc3c(CN4CCN(c5ncnc6sc7c(c56)CCC7)CC4)cccc3C2=S)C(=O)N1 (centres unmarked) [GT-08925, 3-(4-((4-(6,7-dihydro-5H-cyclopenta[4,5]thieno[2,3-d]pyrimidin-4-yl)piperazin-1-yl)methyl)-1-thioxoisoindolin-2-yl)piperidine-2,6-dione]	60 to 80%	80 to 100%	A (0% ≤ substrate protein remaining % ≤ 80%)	B (80%< substrate protein remaining %≤ 100%)	A (0% ≤ substrate protein remaining % ≤ 80%)	B (80%< substrate protein remaining %≤ 100%)	A (0% ≤ substrate protein remaining % ≤ 80%)	B (80%< substrate protein remaining %≤ 100%)	60 to 70%	60 to 70%										
